From patent US11634447B2 (priority 2012, dated 2023)

Each compound was assayed on bacterial strain LF82 binding to the glycoprotein BSA-(Mannose)3 (assay: Bacterial Binding Assay (BBA)). Settings: read-out: Bacterial Binding Assay IC50, LF82/Luciferase strain binding to BSA-(Man)3 coated plates, luminescence.
Assay type: cell-based, Escherichia coli
Outline: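 Inhibition of LF82/luciferase E. coli adhesion is read as luminescence after washing off unbound cells. Compound and bacteria (10^7 per well) are co-incubated 40-75 min at room temperature on wells coated with 0.5-2 μg/mL BSA-(Man)3, with BSA-only wells as background; IC50 values derived.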

Row | SMILES | IC50
1 | CC(C)OC(=O)c1c(C#C[C@H]2O[C@H](CO)[C@@H](O)[C@H](O)[C@@H]2O)ccc2c1C1(CCNCC1)c1cc(C#C[C@H]3O[C@H](CO)[C@@H](O)[C@H](O)[C@@H]3O)ccc1-2 [Compound 208] | 0.03 nM
2 | OCc1cc(C#C[C@H]2O[C@H](CO)[C@@H](O)[C@H](O)[C@@H]2O)ccc1C#C[C@H]1O[C@H](CO)[C@@H](O)[C@H](O)[C@@H]1O [Compound 95, (2R,3S,4R,5S,6R)-2-(hydroxymethyl)-6-[2-[3-(hydroxymethyl)-4-[2-[(2R,3S,4R,5S,6R)-3,4,5-trihydroxy-6-(hydroxymethyl)tetrahydropyran-2-yl]ethynyl]phenyl]ethynyl]tetrahydropyran-3,4,5-triol] | 38 nM
3 | Cc1cc(-c2ccc(-c3ccc([C@H]4O[C@H](CO)[C@@H](O)[C@H](O)[C@@H]4O)c(C)c3)nc2)ccc1[C@H]1O[C@H](CO)[C@@H](O)[C@H](O)[C@@H]1O [Compound 157, (2R,3S,4R,5S,6R)-2-(hydroxymethyl)-6-[2-methyl-4-[6-[3-methyl-4-[(2R,3S,4R,5S,6R)-3,4,5-trihydroxy-6-(hydroxymethyl)tetrahydropyran-2-yl]phenyl]-3-pyridyl]phenyl]tetrahydropyran-3,4,5-triol] | 10 nM
4 | OC[C@H]1O[C@H](C#Cc2ccc3c(c2)C(O)(CC2CCCCC2)c2cc(C#C[C@H]4O[C@H](CO)[C@@H](O)[C@H](O)[C@@H]4O)ccc2-3)[C@@H](O)[C@@H](O)[C@@H]1O (stereo partly drawn) [Compound 215, (2R,3S,4R,5S,6R)-2-[2-[9-(cyclohexylmethyl)-9-hydroxy-7-[2-[(2R,3S,4R,5S,6R)-3,4,5-trihydroxy-6-(hydroxymethyl)tetrahydropyran-2-yl]ethynyl]fluoren-2-yl]ethynyl]-6-(hydroxymethyl)tetrahydropyran-3,4,5-triol] | 5 nM
5 | Cc1c(C#C[C@H]2O[C@H](CO)[C@@H](O)[C@H](O)[C@@H]2O)cccc1[C@H]1O[C@H](CO)[C@@H](O)[C@H](O)[C@@H]1O [Compound 148] | 130 nM
6 | CCCCc1cc(C#C[C@H]2O[C@H](CO)[C@@H](O)[C@H](O)[C@@H]2O)ccc1C#C[C@H]1O[C@H](CO)[C@@H](O)[C@H](O)[C@@H]1O [Compound 72] | 18 nM
7 | Cc1cc(-c2cccc(-c3ccc([C@H]4O[C@H](CO)[C@@H](O)[C@H](O)[C@@H]4O)c(C)c3)n2)ccc1[C@H]1O[C@H](CO)[C@@H](O)[C@H](O)[C@@H]1O [Compound 154, (2R,3S,4R,5S,6R)-2-(hydroxymethyl)-6-[2-methyl-4-[6-[3-methyl-4-[(2R,3S,4R,5S,6R)-3,4,5-trihydroxy-6-(hydroxymethyl)tetrahydropyran-2-yl]phenyl]-2-pyridyl]phenyl]tetrahydropyran-3,4,5-triol] | 44 nM
8 | OC[C@H]1O[C@H](C#Cc2cnc(C#C[C@H]3O[C@H](CO)[C@@H](O)[C@H](O)[C@@H]3O)cn2)[C@@H](O)[C@@H](O)[C@@H]1O [Compound 135] | 580 nM
9 | OC[C@H]1O[C@H](C#Cc2ccc3c(c2)CCc2cc(C#C[C@H]4O[C@H](CO)[C@@H](O)[C@H](O)[C@@H]4O)ccc2-3)[C@@H](O)[C@@H](O)[C@@H]1O [Compound 117, (2R,3S,4R,5S,6R)-2-(hydroxymethyl)-6-[2-[7-[2-[(2R,3S,4R,5S,6R)-3,4,5-trihydroxy-6-(hydroxymethyl)tetrahydropyran-2-yl]ethynyl]-9,10-dihydrophenanthren-2-yl]ethynyl]tetrahydropyran-3,4,5-triol] | 23 nM
10 | CO[C@H](C)C(=O)c1c(C#C[C@H]2O[C@H](CO)[C@@H](O)[C@H](O)[C@@H]2O)ccc2c1C1(CCNCC1)c1cc(C#C[C@H]3O[C@H](CO)[C@@H](O)[C@H](O)[C@@H]3O)ccc1-2 [Compound 229, (2R)-1-[2,7-bis[2-[(2R,3S,4R,5S,6R)-3,4,5-trihydroxy-6-(hydroxymethyl)tetrahydropyran-2-yl]ethynyl]spiro[fluorene-9,4piperidine]-1yl]-2-methoxy-propan-1-one] | 0.35 nM
11 | CCCCCC1(O)c2cc(C#C[C@H]3O[C@H](CO)[C@@H](O)[C@H](O)[C@@H]3O)ccc2-c2ccc(C#C[C@H]3O[C@H](CO)[C@@H](O)[C@H](O)[C@@H]3O)cc21 [Compound 113, (2R,3S,4R,5S,6R)-2-(hydroxymethyl)-6-[2-[9-hydroxy-9-pentyl-7-[2-[(2R,3S,4R,5S,6R)-3,4,5-trihydroxy-6-(hydroxymethyl)tetrahydropyran-2-yl]ethynyl]fluoren-2-yl]ethynyl]tetrahydropyran-3,4,5-triol] | 5.5 nM
12 | OCC(O)Cn1c2ccc(C#C[C@H]3O[C@H](CO)[C@@H](O)[C@H](O)[C@@H]3O)cc2c2cc(C#C[C@H]3O[C@H](CO)[C@@H](O)[C@H](O)[C@@H]3O)ccc21 (stereo partly drawn) [Compound 174, (2R,3S,4R,5S,6R)-2-[2-[9-(2,3-dihydroxypropyl)-6-[2-[(2R,3S,4R,5S,6R)-3,4,5-trihydroxy-6-(hydroxymethyl)tetrahydropyran-2-yl]ethynyl]carbazol-3-yl]ethynyl]-6-(hydroxymethyl)tetrahydropyran-3,4,5-triol] | 4.7 nM
13 | OC[C@H]1O[C@H](C#Cc2ccc(C#C[C@H]3O[C@H](CO)[C@@H](O)[C@H](O)[C@@H]3O)c(F)c2)[C@@H](O)[C@@H](O)[C@@H]1O [Compound 105, (2R,3S,4R,5S,6R)-2-[2-[3-fluoro-4-[2-[(2R,3S,4R,5S,6R)-3,4,5-trihydroxy-6-(hydroxymethyl)tetrahydropyran-2-yl]ethynyl]phenyl]ethynyl]-6-(hydroxymethyl)tetrahydropyran-3,4,5-triol] | 46 nM
14 | OC[C@H]1O[C@H](C#Cc2ccc3c(c2)C(O)(CC2CCCC2)c2cc(C#C[C@H]4O[C@H](CO)[C@@H](O)[C@H](O)[C@@H]4O)ccc2-3)[C@@H](O)[C@@H](O)[C@@H]1O (stereo partly drawn) [Compound 214, (2R,3S,4R,5S,6R)-2-[2-[9-(cyclopentylmethyl)-9-hydroxy-7-[2-[(2R,3S,4R,5S,6R)-3,4,5-trihydroxy-6-(hydroxymethyl)tetrahydropyran-2-yl]ethynyl]fluoren-2-yl]ethynyl]-6-(hydroxymethyl)tetrahydropyran-3,4,5-triol] | 0.45 nM
15 | COCCc1cc(C#C[C@H]2O[C@H](CO)[C@@H](O)[C@H](O)[C@@H]2O)ccc1C#C[C@H]1O[C@H](CO)[C@@H](O)[C@H](O)[C@@H]1O [Compound 74] | 8.1 nM
16 | O=C(CN1CCOCC1)N1CCC2(CC1)c1cc(C#C[C@H]3O[C@H](CO)[C@@H](O)[C@H](O)[C@@H]3O)ccc1-c1ccc(C#C[C@H]3O[C@H](CO)[C@@H](O)[C@H](O)[C@@H]3O)cc12 [Compound 221, 1-[2,7-bis[2-[(2R,3S,4R,5S,6R)-3,4,5-trihydroxy-6-(hydroxymethyl)tetrahydropyran-2-yl]ethynyl]spiro[fluorene-9,4piperidine]-1l]-2-morpholino-ethanone] | 0.04 nM
17 | Cc1cc(C#C[C@H]2O[C@H](CO)[C@@H](O)[C@H](O)[C@@H]2O)cc(C)c1C#C[C@H]1O[C@H](CO)[C@@H](O)[C@H](O)[C@@H]1O [Compound 100, (2R,3S,4R,5S,6R)-2-[2-[3,5-dimethyl-4-[2-[(2R,3S,4R,5S,6R)-3,4,5-trihydroxy-6-(hydroxymethyl)tetrahydropyran-2-yl]ethynyl]phenyl]ethynyl]-6-(hydroxymethyl)tetrahydropyran-3,4,5-triol] | 28 nM
18 | Cc1cc(-c2ccc([C@H]3O[C@H](CO)[C@@H](O)[C@H](O)[C@@H]3O)c(C)c2)ccc1[C@H]1O[C@H](CO)[C@@H](O)[C@H](O)[C@@H]1O [Compound 68] | 7.7 nM
